Laboratory results from PubChem BioAssay (NCI).
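Cultured in 96-well plates, cells were exposed to test compound for 48 hours across five concentrations. GI50 = concentration required for 50% inhibition of growth. TGI: total growth inhibition.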

Columns and labels:
Test in all cases: NCI-60 cell line screen, 48 h
U251 CNS = test system: U251 CNS
SW-620 colon = test system: SW-620 colon
HOP-62 NSCLC = test system: HOP-62 NSCLC
HT29 colon = test system: HT29 colon
RXF 393 renal = test system: RXF 393 renal
HS 578T breast = test system: HS 578T breast
IGROV1 ovarian = test system: IGROV1 ovarian
NCI-H522 lung = test system: NCI-H522 lung
OVCAR-8 ovarian = test system: OVCAR-8 ovarian
NCI-H460 lung = test system: NCI-H460 lung
SR leukemia = test system: SR leukemia
UO-31 renal = test system: UO-31 renal
OVCAR-3 ovarian = test system: OVCAR-3 ovarian
CAKI-1 renal = test system: CAKI-1 renal
LOX IMVI melanoma = test system: LOX IMVI melanoma
DU-145 prostate = test system: DU-145 prostate
OVCAR-4 ovarian = test system: OVCAR-4 ovarian
HOP-92 NSCLC = test system: HOP-92 NSCLC
T-47D breast = test system: T-47D breast
SK-MEL-5 melanoma = test system: SK-MEL-5 melanoma
SF-295 CNS = test system: SF-295 CNS
SF-268 CNS = test system: SF-268 CNS
SK-OV-3 ovarian = test system: SK-OV-3 ovarian
NCI-H226 lung = test system: NCI-H226 lung
SK-MEL-2 melanoma = test system: SK-MEL-2 melanoma
UACC-62 melanoma = test system: UACC-62 melanoma
BT-549 breast = test system: BT-549 breast
CCRF-CEM leukemia = test system: CCRF-CEM leukemia
RPMI-8226 leukemia = test system: RPMI-8226 leukemia
EKVX NSCLC = test system: EKVX NSCLC
KM12 colon = test system: KM12 colon
NCI-H23 lung = test system: NCI-H23 lung
HL-60(TB) leukemia = test system: HL-60(TB) leukemia
SK-MEL-28 melanoma = test system: SK-MEL-28 melanoma
MOLT-4 leukemia = test system: MOLT-4 leukemia
COLO 205 colon = test system: COLO 205 colon
MDA-MB-435 = test system: MDA-MB-435
A498 renal = test system: A498 renal
TK-10 renal = test system: TK-10 renal
HCT-15 colon = test system: HCT-15 colon
786-0 renal = test system: 786-0 renal
SF-539 CNS = test system: SF-539 CNS
MDA-MB-231 breast = test system: MDA-MB-231 breast
OVCAR-5 ovarian = test system: OVCAR-5 ovarian
SN12C renal = test system: SN12C renal
HCC-2998 colon = test system: HCC-2998 colon
NCI/ADR-RES ovarian = test system: NCI/ADR-RES ovarian
ACHN renal = test system: ACHN renal
MCF7 breast = test system: MCF7 breast
SNB-19 CNS = test system: SNB-19 CNS
HCT-116 colon = test system: HCT-116 colon
PC-3 prostate = test system: PC-3 prostate
M14 melanoma = test system: M14 melanoma
A549 NSCLC = test system: A549 NSCLC

COc1ccc(C2NC(=O)c3cc4c(cc3N2)OCO4)cc1 (configuration not stated)
GI50 (U251 CNS): 849 nM | TGI (U251 CNS): > 100000 nM | GI50 (SW-620 colon): 432 nM | TGI (SW-620 colon): > 100000 nM | GI50 (HOP-62 NSCLC): 1020 nM | TGI (HOP-62 NSCLC): > 100000 nM | GI50 (HT29 colon): 856 nM | TGI (HT29 colon): > 100000 nM | GI50 (RXF 393 renal): 287 nM | TGI (RXF 393 renal): 1610 nM | GI50 (HS 578T breast): 1420 nM | TGI (HS 578T breast): > 100000 nM | GI50 (IGROV1 ovarian): 4920 nM | TGI (IGROV1 ovarian): > 100000 nM | GI50 (NCI-H522 lung): 1870 nM | TGI (NCI-H522 lung): 6580 nM | GI50 (OVCAR-8 ovarian): 1630 nM | TGI (OVCAR-8 ovarian): > 100000 nM | GI50 (NCI-H460 lung): 341 nM | TGI (NCI-H460 lung): > 100000 nM | GI50 (SR leukemia): 415 nM | TGI (SR leukemia): > 100000 nM | GI50 (UO-31 renal): 13500 nM | TGI (UO-31 renal): > 100000 nM | GI50 (OVCAR-3 ovarian): 791 nM | TGI (OVCAR-3 ovarian): 3520 nM | GI50 (CAKI-1 renal): 466 nM | TGI (CAKI-1 renal): > 100000 nM | GI50 (LOX IMVI melanoma): 821 nM | TGI (LOX IMVI melanoma): > 100000 nM | GI50 (DU-145 prostate): 807 nM | TGI (DU-145 prostate): > 100000 nM | GI50 (OVCAR-4 ovarian): 5520 nM | TGI (OVCAR-4 ovarian): > 100000 nM | GI50 (HOP-92 NSCLC): 11400 nM | TGI (HOP-92 NSCLC): > 100000 nM | GI50 (T-47D breast): 683 nM | TGI (T-47D breast): > 100000 nM | GI50 (SK-MEL-5 melanoma): 297 nM | TGI (SK-MEL-5 melanoma): 50500 nM | GI50 (SF-295 CNS): 704 nM | TGI (SF-295 CNS): > 100000 nM | GI50 (SF-268 CNS): 2000 nM | TGI (SF-268 CNS): > 100000 nM | GI50 (SK-OV-3 ovarian): 499 nM | TGI (SK-OV-3 ovarian): 7360 nM | GI50 (NCI-H226 lung): 389 nM | TGI (NCI-H226 lung): 6090 nM | GI50 (SK-MEL-2 melanoma): 2840 nM | TGI (SK-MEL-2 melanoma): > 100000 nM | GI50 (UACC-62 melanoma): 571 nM | TGI (UACC-62 melanoma): > 100000 nM | GI50 (BT-549 breast): 16500 nM | TGI (BT-549 breast): > 100000 nM | GI50 (CCRF-CEM leukemia): 868 nM | TGI (CCRF-CEM leukemia): > 100000 nM | TGI (RPMI-8226 leukemia): > 100000 nM | GI50 (EKVX NSCLC): 2420 nM | TGI (EKVX NSCLC): > 100000 nM | GI50 (KM12 colon): 557 nM | TGI (KM12 colon): > 100000 nM | GI50 (NCI-H23 lung): 1250 nM | TGI (NCI-H23 lung): > 100000 nM | GI50 (HL-60(TB) leukemia): 345 nM | TGI (HL-60(TB) leukemia): 1850 nM | GI50 (SK-MEL-28 melanoma): 719 nM | TGI (SK-MEL-28 melanoma): > 100000 nM | GI50 (MOLT-4 leukemia): 2540 nM | TGI (MOLT-4 leukemia): > 100000 nM | GI50 (COLO 205 colon): 408 nM | TGI (COLO 205 colon): 3560 nM | GI50 (MDA-MB-435): 215 nM | TGI (MDA-MB-435): 543 nM | GI50 (A498 renal): 164 nM | TGI (A498 renal): 2950 nM | GI50 (TK-10 renal): 19300 nM | TGI (TK-10 renal): > 100000 nM | GI50 (HCT-15 colon): 504 nM | TGI (HCT-15 colon): > 100000 nM | GI50 (786-0 renal): 2380 nM | TGI (786-0 renal): > 100000 nM | GI50 (SF-539 CNS): 1010 nM | TGI (SF-539 CNS): 9900 nM | GI50 (MDA-MB-231 breast): 3030 nM | TGI (MDA-MB-231 breast): > 100000 nM | GI50 (OVCAR-5 ovarian): 1510 nM | TGI (OVCAR-5 ovarian): > 100000 nM | GI50 (SN12C renal): 481 nM | TGI (SN12C renal): > 100000 nM | GI50 (HCC-2998 colon): 1070 nM | TGI (HCC-2998 colon): 7140 nM | GI50 (NCI/ADR-RES ovarian): 508 nM | TGI (NCI/ADR-RES ovarian): 3860 nM | GI50 (ACHN renal): 4100 nM | TGI (ACHN renal): > 100000 nM | GI50 (MCF7 breast): 339 nM | TGI (MCF7 breast): > 100000 nM | GI50 (SNB-19 CNS): 966 nM | TGI (SNB-19 CNS): > 100000 nM | GI50 (HCT-116 colon): 511 nM | TGI (HCT-116 colon): > 100000 nM | GI50 (PC-3 prostate): 2810 nM | TGI (PC-3 prostate): > 100000 nM | GI50 (M14 melanoma): 927 nM | TGI (M14 melanoma): > 100000 nM | GI50 (A549 NSCLC): 678 nM | TGI (A549 NSCLC): > 100000 nM
